In article PMC10610545, “Preclinical Evaluation of an Imidazole-Linked Heterocycle for Alzheimer’s Disease” (Pharmaceutics, 2023):

Assays:
[1] = tested on: glial cells: BV2 (microglia), C6 (astroglia), primary microglial and astroglial cultures; assay: LPS-induced nitrite production in glial cultures (Griess); assay type: cell-based, mouse, rat; conditions: LPS 10 μg/mL, 24 h, ligands at 1 μM
Procedure: PD has been described in the same way. Therefore, we based our in vitro model of neuroinflammation on the use of two established glial cell lines, C6 and BV2, as well as primary glial cultures derived from the mouse cerebral cortex. […] When attaining semiconfluence, glial cells were seeded on 96-well plates at 3 × 10^4/well and incubated for 24 h before treatment. Primary astrocytes and microglia were obtained and cultured following a previously described protocol. In brief, the cerebral cortex was dissected, dissociated, and incubated with 0.25% trypsin and EDTA at 37 °C for 1 h. The tissue was then centrifuged, and the resulting pellet was washed with Hanks’ balanced salt solution (Invitrogen). The cells were plated on non-coated flasks and incubated under standard conditions for a minimum of 7 days. Subsequently, each type of glial cell was isolated to obtain pure cultures. To achieve this, the glial cells in the culture flasks were agitated on an orbital shaker for 4 h at 240 rpm and 37 °C. […]
To determine the inflammatory state, glial cells subcultured in 96-well plates were exposed to lipopolysaccharide (LPS, 10 μg/mL, Sigma). […] After 24 h in culture, nitrite production was evaluated.
Following the designated treatments, 100 μL of the cell culture supernatant was mixed with an equal volume of Griess reagent (consisting of 1% sulfanylamide and 0.1% naphthyl ethylene diamine in 5% phosphoric acid, sourced from Sigma-Aldrich, Madrid, Spain) at room temperature for 15 min. […] The absorbance of the mixture was measured at 492/540 nm using a microplate reader from Thermofisher (Madrid, Spain). […]
Figure 5 Role of I2-IR ligands in an in vitro model of neuroinflammation. Nitrite production in the supernatant of glial cells was assessed using the Griess reaction after a 24 h exposure to lipopolysaccharide (LPS, 10 μg/mL) in the presence of the indicated I2-IR ligands at a concentration of 1 μM. […]

[2] = tested on: HT-22 hippocampal cells; assay: Glutamate-induced damage in HT-22 cells (MTT viability, Griess nitrite); assay type: cell-based, mouse; conditions: HT-22, 10 mM glutamate; for neuroprotection (cell viability, MTT): 1 h pretreatment, LSL33 2 μM, LSL34 and LSL60101 1 μM; for nitrite production: culture supernatant
Procedure: In the study of neurotoxicity associated with AD, the HT22 mouse hippocampal neuronal cell line has been recognized as an effective cell model. HT22 cells were purchased from Merck-Sigma-Aldrich (SCC12, Madrid, Spain) and cultured in DMEM-F12 (Gibco, Fisher Scientific, Madrid, Spain) supplemented with foetal bovine serum (FBS, 10%) and 1% penicillin/streptomycin under standard conditions (37 °C, 5% CO2). The human dopaminergic cell line SH-SY5Y, in turn, has been widely used as an in vitro model to study the pathogenesis of PD associated with dopaminergic degeneration. Cells, acquired from the American Type Culture Collection (ATCC, Rockville, MD, USA, Ref.CRL-2266), were grown in RPMI medium (Gibco) supplemented with glutamine (2 mM), 10% FBS, and 1% penicillin/streptomycin under standard conditions. Semiconfluent cells (90%) were seeded on 96-well plates at 3 × 10^4 per well and incubated for 24 h before treatment.
Neuronal cultures, HT-22 and SH-SY5Y, seeded on 96-well plates were treated with LSL33, LSL34, and LSL60101 for 24 h, and viability was assessed using the MTT assay. […] Then, cultures were treated for 1h with LSL33 at 2 μM and LSL34 and LSL60101 at 1 μM. This dose was chosen based on previous studies. Subsequently, HT-22 cultures were exposed to glutamate (10 mM, Merck-Sigma), while SH-SY5Y cultures received 6-hydroxydopamine (6-OHDA, 35 μM, Merck-Sigma). The cells were then incubated for a minimum of 16 h. Finally, the cellular viability and nitrite production of the cultures were assessed.
The assessment of cell viability was conducted using the 3-(4,5-dimethylthiazol-2-yl)-5-(3-carboxymethoxyphenyl)-2-(4-sulfophenyl)-2H-tetrazolium (MTT) assay, following the instructions provided by the manufacturer (Roche Diagnostic, Darmstadt, Germany). Briefly, after exposure to glutamate or 6-OHDA, the cell culture medium was replaced with 100 μL of fresh culture medium containing MTT solution (0.5 mg/mL) and incubated for 1 h. The medium was then removed, and the resulting formazan crystals were dissolved in dimethylsulfoxide (DMSO, Merck-Sigma). The absorbance of the solution was measured at 595–650 nm using a spectrophotometer. The experiments were performed at least three times, and the results were expressed as a percentage of the control.
Following the designated treatments, 100 μL of the cell culture supernatant was mixed with an equal volume of Griess reagent (consisting of 1% sulfanylamide and 0.1% naphthyl ethylene diamine in 5% phosphoric acid, sourced from Sigma-Aldrich, Madrid, Spain) at room temperature for 15 min. To determine the nitrite concentrations, a standard solution of sodium nitrite was employed. The absorbance of the mixture was measured at 492/540 nm using a microplate reader from Thermofisher (Madrid, Spain). The experiments were repeated a minimum of three times.
Figure 4 In vitro screening of I2-IR ligands: Assessment of neuroprotective and anti-inflammatory effects HT-22 cells exposed to 10mM glutamate for at least 16 h Similarly, SH-SY5Y was damaged with 35 μM 6-OHDA (35 μM). Some cultures were pretreated with the I2-IR ligands. Cell viability was evaluated using the MTT assay, and nitrite production in the cell supernatant was quantified using the Griess reaction. The reported values represent the mean ± SD obtained from triplicate determinations repeated at least three times. Statistical analysis was performed: * p ≤ 0.05, ** p ≤ 0.01, *** p ≤ 0.001 (versus glutamate- or 6-OHDA-treated cultures); ^# p ≤ 0.05, ^### p ≤ 0.001 (versus idazoxan-treated cultures); ^& p ≤ 0.1, ^&&& p ≤ 0.001 (versus 2-BFI-treated cultures).

| Structure (SMILES) | nitrite levels [1] | neuroprotection (cell viability, MTT) [2] | nitrite production [2] |
| --- | --- | --- | --- |
| c1ccc2oc(-c3ncc[nH]3)cc2c1 [LSL60101, reference compound] | notable reduction in nitrite levels | potent neuroprotective effects | significant attenuation of the increased nitrite production |
| Cl.c1ccc2sc(-c3ncc[nH]3)cc2c1 [LSL33, 2-(Benzo[b]thiophene-2-yl)-1H-imidazole hydrochloride] | notable reduction in nitrite levels | potent neuroprotective effects | significant attenuation of the increased nitrite production |
| Cl.c1ccc2oc(-n3ccnc3)cc2c1 [LSL34, 1-(Benzofuran-2-yl)-1H-imidazole hydrochloride] | notable reduction in nitrite levels | potent neuroprotective effects | significant attenuation of the increased nitrite production |
